Measurements published in patent US10159676B2, “Induction of tumor hypoxia for cancer therapy” (Virginia Commonwealth University, priority 2008, dated 2018).

Assays:
hypoxic cells = settings: cited from earlier work
[1] = in vivo; cited from earlier work
[2] = system: stage IV non-small cell lung cancer; settings: cited from earlier work
[3] = cited from earlier work
UCI-101 tumor xenografts = experiment: Tumor xenograft size after multiple dosing (days 8, 10, 12); format: in vivo, nude mice; settings: ip on days 8, 10 and 12; stilbene 5c 50 mg/kg, tirapazamine 60 mg/kg; day 14; 6 mice per group
Protocol: The long and short axes of tumor were measured to calculate tumor size and plotted against days. Each treatment group contains 6 mice.
Mice were then sacrificed at day 14. The long and short axes of tumors were measured to calculate tumor size and plotted against days. Each treatment group contains 6 mice.
Tumor cell lines used in this study include UCI-101 ovarian cancer cells and Hep3B hepatocellular carcinoma cells. Cells are grown in IMEM and DMEM, respectively, supplemented with 10% fetal bovine serum, glutamine, and penicillium/streptomycin in 5% CO2 humidified environment. When cells were grown to 80% confluent, cells were harvested with 1% trypsin and washed with phosphate-buffered saline three times before injected subcutaneously into nude mice. For mouse xenograft studies, 2×10^6 tumor cells were injected in the back subcutaneously. Nude mice were purchased from NCI Development Therapeutic Program as described. Tumor size was monitored by long and short axes (a and b, respectively) by a caliber and tumor volume was calculated by the formula ab^2/2. […] Treatment with AAA bevacizumab was done by tail vein injection at a dose of 10 mg/kg.
Next we measured the size of tumor xenografts after multiple dosing. Nude mice were injected subcutaneously with UCI-101 cells and tumor became visible after day 7. […] Tumor xenografts were measured and sizes are plotted in FIG. 7.

[4] = Weight loss in multiple dosing xenograft study; format: in vivo, nude mice; settings: day 14; tirapazamine 60 mg/kg ip days 8, 10, 12 (alone or with stilbene 5c 50 mg/kg)
Protocol: Next we measured the size of tumor xenografts after multiple dosing. Nude mice were injected subcutaneously with UCI-101 cells and tumor became visible after day 7. Treatment was administered by intraperitoneal injection on days 8, 10 and 12 with 6 mice in each group. […] […]. […].

tumor = settings: tirapazamine alone given at 70 mg/kg; cited from earlier work
UCI-101 tumor xenograft = experiment: Tumor growth, stilbene 5c with or without bevacizumab; format: in vivo, nude mice; settings: stilbene 5c 20 mg/kg/day Monday to Friday for two weeks; bevacizumab 10 mg/kg twice a week for 5 doses
Protocol: FIG. 4. Efficacy of stilbene 5c in vivo and enhanced effect by bevacizumab. Nude mice were injected with UCI-101 cells subcutaneously and mice are treated with stilbene 5c at 20 mg/kg/day Monday-Friday with or without bevacizumab 10 mg/kg twice a week. Tumor volume was calculated by the long and short axes. Each group contains 8 mice and the average tumor volumes and standard deviations were plotted against days.
Tumor cell lines used in this study include UCI-101 ovarian cancer cells and Hep3B hepatocellular carcinoma cells. Cells are grown in IMEM and DMEM, respectively, supplemented with 10% fetal bovine serum, glutamine, and penicillium/streptomycin in 5% CO2 humidified environment. When cells were grown to 80% confluent, cells were harvested with 1% trypsin and washed with phosphate-buffered saline three times before injected subcutaneously into nude mice. For mouse xenograft studies, 2×10^6 tumor cells were injected in the back subcutaneously. Nude mice were purchased from NCI Development Therapeutic Program as described. Tumor size was monitored by long and short axes (a and b, respectively) by a caliber and tumor volume was calculated by the formula ab^2/2. […]. Treatment with AAA bevacizumab was done by tail vein injection at a dose of 10 mg/kg.
Next we used ovarian cancer UCI101 cells to study the in vivo efficacy of stilbene 5c We first administered stilbene 5c with intraperitoneal injection at 25 mg/kg three times a week. Tumor volume was calculated by measuring the long and short axes. […] The failure could be due to the possibility that intermittent dosing leaves a viable rim of tumor, which survives the treatment of VDAs by getting nutritional and blood support from surrounding normal vasculature. When treatment with VDAs is stopped, the viable rim of tumor grows quickly. Tumor vasculature recovers quickly by recruitment of the mobilized endothelial progenitor cells. Based on this rationale, we combined stilbene 5c with bevacizumab, which was used to neutralize VEGF secreted by UCI-101 tumor cells. […]

[5] = in vivo; cited from earlier work; remark: listed apart in the source
[6] = phase I, intravenous every three weeks

| Molecule | greater toxicity to hypoxic cells compared to well-oxygenated cells (hypoxic cells) | potential side effects in animal studies [1] | response rate, overall survival, or progression free survival ([2]; tirapazamine 260-330 mg/m^2 added to carboplatin and paclitaxel vs placebo) | systemic toxicity ([2]; tirapazamine added to carboplatin and paclitaxel vs placebo) | tolerated dose, tirapazamine by itself ([3]; phase I and phase II trials) | dose with dose limiting toxicities (reversible ototoxicity and transient visual abnormality) [3, 6] | maximum tolerated dose (MTD) [3, 6] [mg/m^2] | size of tumor compared with the control (UCI-101 tumor xenografts) | weight loss [4] [%] | tumor growth suppression (tumor) | tumor growth suppression (UCI-101 tumor xenograft) | half-life [5] |
| --- | --- | --- | --- | --- | --- | --- | --- | --- | --- | --- | --- | --- |
| Nc1n[n+]([O-])c2ccccc2[n+]1[O-] [tirapazamine, 3-amino-1,2,4-benzotriazine-1,4-di-N-oxide] | 15-200 fold | bone marrow toxicity, necrosis of the olfactory nerve, and retinal degeneration | no benefit | increased systemic toxicity | up to 390 mg/m^2 | above 330 mg/m^2 | 390 | about 50% | 20 | no effect |  |  |
| bevacizumab: a monoclonal antibody against vascular endothelial growth factor (VEGF) [reference compound] |  |  |  |  |  |  |  |  |  |  | about 25% | over 7 days |
